This is an account of results in US9505730B2, “Mineralocorticoid receptor antagonists” (Merck Sharp & Dohme Corp., priority 2011, dated 2016).

Structures are written as SMILES. A value given as a limit tells only on which side of the number the result lay.

This test deals with T1, full-length human Mineralocorticoid Receptor (MR) (Homo sapiens, UniProt P08235).
T1 construct: host or cells: PathHunter CHO-K1 cells
T1 sequence (P08235 1-984): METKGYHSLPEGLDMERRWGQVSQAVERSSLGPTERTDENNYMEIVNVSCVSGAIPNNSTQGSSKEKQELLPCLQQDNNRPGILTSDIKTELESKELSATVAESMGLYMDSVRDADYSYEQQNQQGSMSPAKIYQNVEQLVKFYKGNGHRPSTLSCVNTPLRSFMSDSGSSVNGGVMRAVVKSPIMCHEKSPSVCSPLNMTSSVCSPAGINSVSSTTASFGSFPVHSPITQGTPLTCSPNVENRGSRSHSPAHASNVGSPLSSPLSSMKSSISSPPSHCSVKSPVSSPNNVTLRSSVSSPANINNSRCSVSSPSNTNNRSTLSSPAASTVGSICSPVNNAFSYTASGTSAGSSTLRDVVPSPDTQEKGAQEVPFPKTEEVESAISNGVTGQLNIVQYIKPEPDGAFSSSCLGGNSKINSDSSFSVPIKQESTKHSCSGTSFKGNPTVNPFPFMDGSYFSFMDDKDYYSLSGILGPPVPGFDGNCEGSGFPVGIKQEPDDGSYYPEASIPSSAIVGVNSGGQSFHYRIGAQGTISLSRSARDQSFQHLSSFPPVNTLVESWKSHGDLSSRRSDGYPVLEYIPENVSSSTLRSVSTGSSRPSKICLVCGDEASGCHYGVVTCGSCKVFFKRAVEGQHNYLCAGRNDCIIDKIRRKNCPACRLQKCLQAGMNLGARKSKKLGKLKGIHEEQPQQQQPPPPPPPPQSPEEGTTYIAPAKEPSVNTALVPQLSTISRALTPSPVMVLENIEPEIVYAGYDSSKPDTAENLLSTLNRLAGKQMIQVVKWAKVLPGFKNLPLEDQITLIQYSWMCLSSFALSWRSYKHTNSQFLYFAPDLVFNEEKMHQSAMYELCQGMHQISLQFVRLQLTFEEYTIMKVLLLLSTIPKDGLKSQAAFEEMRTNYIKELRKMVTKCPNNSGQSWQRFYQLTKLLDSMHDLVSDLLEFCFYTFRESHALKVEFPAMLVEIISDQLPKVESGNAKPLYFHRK
Put plainly: human MR NH Pro assay (PathHunter Protein:Protein interaction assay, MR antagonism). Format: cell-based. Particulars: PathHunter CHO-K1 cells overexpressing human MR; aldosterone 0.3 nM; 6 hours at 37° C.; luminescence; read-out: IC50 rating. Here is the method:
The activity of the compounds of the present invention regarding mineralocorticoid receptor antagonism was evaluated using the following assay.
Assessment of Mr Potency in Hmr Nh Pro Assay
The human MR NH Pro assay is a commercially available PathHunter™ Protein: Protein interaction assay (DiscoveRx; http://www.discoverx.com/nhrs/prod-nhrs.php) that measures the ability of compounds to antagonize full-length human Mineralocorticoid Receptor (MR) binding to a coactivator peptide. PathHunter™ CHO-K1 cells that overexpress human MR (Cat #93-0456C2, Lot No: 09B0913) were cultured in growth media (F12K w/Glutamine and phenol red (Gibco 11765-047) supplemented with 10% HI FBS (Gibco 16000); 0.25 mg/ml Hygromycin in PBS (Invitrogen 10687-010, 50 mg/ml); 100 I.U./mL and 100 μg/mL Pen/Strep (Gibco 15140-122); 0.6 mg/mL Geneticin).
Compounds were assessed for MR antagonist activity by incubating the cells with a titrating dose of compound in F12K w/Glutamine and phenol red culture media (Invitrogen 11765-047) supplemented with 1% Charcoal/Dextran Treated FBS (Hyclone #SH30068.01) and aldosterone (0.3 nM) for 6 hours at 37° C.
• F12K w/Glutamine and phenol red (Gibco 11765-047) • 10% HI FBS (Gibco 16000) • 0.25 mg/ml Hygromycin in PBS (Invitrogen 10687-010, 50 mg/ml) • 100 I.U./mL and 100 μg/mL Pen/Strep (Gibco 15140-122) • 0.6 mg/mL Geneticin (Gibco 10131, 50 mg/ml) 2. Assay media: • F12K w/Glutamine and phenol red (Invitrogen 11765-047) • 1% Charcoal/Dextran Treated FBS (Hyclone #SH30068.01) 3. 3× PathHunter Detection Reagents (Cat#93-0001) (need ˜6 ml/plate). […] Control Agonist: Aldosterone: Sigma cat #A9477 • Prepare stock solution—10 μM in DMSO kept at −20 C • for assay, dilute in assay media to 1.8 or 6 nM (6× of final concentration=about 0.3 nM to about 1.0 nM) 5. Cell line: PathHunter CHO-K1 MR cells Cat #93-0456C2, Lot No: 09B0913, from operation liquid nitrogen stock. 6. Control Antagonist: Spironolactone: Sigma #S-3378 and Eplerenone Sigma #107724-20-9 (10 mM stock concentration also prepared in DMSO and stored at −20° C.). Methods: Assay Set up and Calculations: • 1. Cells were grown in F12+FBS+Hygromycin+pen/strep+Genetin. • 2. Cells were collected with 0.05% trypsin and the cell suspension was spun and resuspended in a volume of F12+1.5% CD-FBS and counted. • 3. The cells were resuspended to 4×10^5 cells/mL. • 4. Cells were (25 μL/well) added to the wells of a 384 well plate. • 5. The plate was then incubated at 37° C. over night in a humidified incubator with 5% CO2. • 6. Test compounds were titrated starting at 4.4 mM, 10-point titration in 1:3 dilution. • 7. Aldosterone was diluted in assay media to 1.8 nM or 6 nM from 10 μM stock (final concentration to be about 0.3 nM to about 1.0 nM). Protocol for 384 well plate format: 6 hr treatment: • 1. Plated 10K exponentially growing cells/well (25 μL) resuspended in assay media to each well using the Multidrop (Thermo Electron). Use white wall, clear bottom assay plates (Costar #3570) and incubate overnight at 37° C., 5% CO2. • 2. 0.25 μL 120× test compound (final DMSO concentration should be <1%) was added to each well n=2, 10 point titrations starting at 36.7 μM final concentration. • 3. 5 μL 6× agonist (final aldosterone concentration should be about 0.3 nM to about 1.0 nM) was added to all wells using the PlateMate Plus.
(ThermoFisher) (except those wells in columns 23 and 24) • 4. 5 μL of assay media was added to all wells in column 23 and 24. • 5. Plates were incubated 6 hrs at 37° C., 5% CO2. • 6. 15 μL 3× DiscoveRx detection reagent was added to each well. • 7. Plates were incubated for 1 hour at room temperature (plates stored in the dark). • 8. Plates were read on Envision (PerkinElmer) luminesence plate reader and analyzed using ADA. LC/MS method: (LC2M_Low/Med_Positive mode). LC Conditions: 5-98% CH3CN/H2O+v 0.1% TFA over 1.25 min; Flow Rate=1.5 mL/min, UV wavelength 254 nm; Column: Waters XTerra® MS C18 3.5 μm 2.1×20 mm IS™
As for `C[C@H](c1ccccc1)N1C(=O)N[C@](Cc2ccccc2)(C(=O)N2CCc3ccccc3C2)C1=O` (single isomer, unassigned) [Compound 23], the half-maximal inhibitory concentration (IC50) lay within 500 to 4500 nM.

As for `COc1cc(CNC(=O)[C@@]2(Cc3ccccc3)OC(=O)N([C@H](C)c3ccccc3)C2=O)cc(OC)c1` [Compound 1, (5R)-Benzyl-N-(3,5-dimethoxybenzyl)-2,4-dioxo-3-[(1R)-1-phenylethyl]-1,3-oxazolidine-5-carboxamide], the IC50 is under 100 nM.

As for `C[C@H](c1ccc(F)cc1)N1C(=O)O[C@](Cc2ccc(F)cc2)(C(=O)NCc2ccc(Cl)c(Cl)c2)C1=O` [Compound 2, (5R)-N-(3,4-Dichlorobenzyl)-5-(4-fluorobenzyl)-3-[(1R)-1-(4-fluorophenyl)ethyl]-2,4-dioxo-1,3-oxazolidine-5-carboxamide], the IC50 was 100 to 500 nM.

For `COc1cc(CNC(=O)[C@@]2(Cc3ccc(F)cc3)OC(=O)N([C@H](C)c3ccccc3)C2=O)cc(OC)c1` [Compound 3, (5R)-N-(3,5-Dimethoxybenzyl)-5-(4-fluorobenzyl)-2,4-dioxo-3-[(1R)-1-phenylethyl]-1,3-oxazolidine-5-carboxamide], the IC50 fell in the range of 100 to 500 nM.

`C[C@H](c1ccccc1)N1C(=O)O[C@](Cc2ccccc2)(C(=O)N[C@H]2C[C@H](c3ccccc3)C2)C1=O` [Compound 4, (5R)-5-Benzyl-2,4-dioxo-N-(trans-3-phenylcyclobutyl)-3-[(1R)-1-phenylethyl]-1,3-oxazolidine-5-carboxamide]: the IC50 lay within 100 to 500 nM.

`COc1cc(CNC(=O)C2(Cc3cccc(Cl)c3)OC(=O)N([C@H](C)c3ccccc3)C2=O)cc(OC)c1` (stereo partly drawn) [Compound 5, 5-(3-Chlorobenzyl)-N-(3,5-dimethoxybenzyl)-2,4-dioxo-3-[(1R)-1-phenylethyl]-1,3-oxazolidine-5-carboxamide]: the concentration for half-maximal inhibition (IC50) was in the range of 500 to 4500 nM.

Regarding `COc1cc(CNC(=O)[C@@]2(Cc3ccccc3)OC(=O)N(C(C)C)C2=O)cc(OC)c1` [Compound 6, (5R)-5-Benzyl-N-(3,5-dimethoxybenzyl)-3-(1-methylethyl)-2,4-dioxo-1,3-oxazolidine-5-carboxamide], the IC50 fell in the range of 100 to 500 nM.

`COc1cc(CNC(=O)[C@@]2(Cc3ccccc3)OC(=O)N(C3CCCc4ccccc43)C2=O)cc(OC)c1` (stereo partly drawn) [Compound 7, (5R)-5-Benzyl-N-(3,5-dimethoxybenzyl)-2,4-dioxo-3-(1,2,3,4-tetrahydronaphthalen-1-yl)-1,3-oxazolidine-5-carboxamide]: the concentration for half-maximal inhibition (IC50) was in the range of 100 to 500 nM.

As to `COc1cc(CNC(=O)[C@@]2(Cc3ccccc3)OC(=O)N([C@H](C)c3ccc(F)cc3)C2=O)cc(OC)c1` [Compound 8, (5R)-5-Benzyl-N-(3,5-dimethoxybenzyl)-3-[(1R)-1-(4-fluorophenyl)ethyl]-2,4-dioxo-1,3-oxazolidine-5-carboxamide], the half-maximal inhibitory concentration (IC50) was under 100 nM.

With `COc1cc(CNC(=O)[C@@]2(Cc3ccccc3)OC(=O)N([C@H](C)c3ccc(Cl)cc3)C2=O)cc(OC)c1` [Compound 9, (5R)-5-Benzyl-3-[(1R)-1-(4-chlorophenyl)ethyl]-N-(3,5-dimethoxybenzyl)-2,4-dioxo-1,3-oxazolidine-5-carboxamide], the IC50 was under 100 nM.

As to `COc1cc(CNC(=O)[C@@]2(Cc3ccccc3)OC(=O)N([C@H](C)C3CCCCC3)C2=O)cc(OC)c1` [Compound 10, (5R)-5-Benzyl-3-[(1R)-1-cyclohexylethyl]-N-(3,5-dimethoxybenzyl)-2,4-dioxo-1,3-oxazolidine-5-carboxamide], the 50% inhibitory concentration (IC50) is under 100 nM.

On to `COc1cc(CNC(=O)[C@@]2(Cc3ccccc3)OC(=O)N([C@@H]3CCc4ccccc43)C2=O)cc(OC)c1` [Compound 11, (5R)-5-Benzyl-3-[(1R)-2,3-dihydro-1H-inden-1-yl]-N-(3,5-dimethoxybenzyl)-2,4-dioxo-1,3-oxazolidine-5-carboxamide], for which the half-inhibitory concentration (IC50) was under 100 nM.

As to `C[C@H](c1ccc(F)cc1)N1C(=O)O[C@](Cc2ccccc2)(C(=O)Nc2cccc(F)c2)C1=O` [Compound 13, (5R)-5-Benzyl-N-(3-fluorophenyl)-3-[(1R)-1-(4-fluorophenyl)ethyl]-2,4-dioxo-1,3-oxazolidine-5-carboxamide], the IC50 is 100 to 500 nM.

The IC50 is the concentration needed to halve the response being measured.
